Experimental data published in patent publication US8952024B2, “Herbicidal pyrimidone derivatives” (E I du Pont de Nemours and Company, priority 2009, dated 2015).

How the values were obtained:
Type in all cases: in vivo
[1] = system: windgrass (Apera spica-venti); assay: Test B postemergence plant response; settings: Postemergence
Method in brief: (§1)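 Visual ratings from 0 (no effect) to 100 (complete control), made against controls 13–15 days after treatment, kept in a greenhouse. Compounds were applied postemergence to potted plants at the 1- to 4-leaf stage (2–18 cm).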

[2] = system: chickweed (Stellaria media); assay: Test B postemergence plant response; settings: Postemergence
Method in brief: as §1

[3] = system: canarygrass (Phalaris minor); assay: Test B postemergence plant response; settings: Postemergence
Method in brief: as §1

[4] = system: winter barley (Hordeum vulgare); assay: Test B postemergence plant response; settings: for Barley plant response rating (0 to 100 scale): 62 g ai/ha, postemergence, 0 is no effect, 100 is complete control; for Plant response rating, Barley: Postemergence
Method in brief: as §1

[5] = system: wheat (Triticum aestivum); assay: Test A pre-/postemergence plant response; settings: for Wheat plant response rating: visual injury, 0 to 100 scale (0 no effect, 100 complete control), approx. ten days
Method in brief: (§2)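 Each species was treated preemergence via directed soil spray and postemergence at the one- to two-leaf stage, with compounds formulated in a non-phytotoxic solvent plus surfactant. Visual injury relative to untreated controls was rated after about ten days on a 0–100 scale.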

[6] = system: corn (Zea mays); assay: Test A pre-/postemergence plant response; settings: for Corn plant response rating: visual injury, 0 to 100 scale (0 no effect, 100 complete control), approx. ten days
Method in brief: as §2

[7] = system: giant foxtail (Setaria faberii); assay: Test A pre-/postemergence plant response; settings: for Foxtail, Giant plant response rating: visual injury, 0 to 100 scale (0 no effect, 100 complete control), approx. ten days
Method in brief: as §2

[8] = system: barnyardgrass (Echinochloa crus-galli); assay: Test A pre-/postemergence plant response; settings: for Barnyardgrass plant response rating: visual injury, 0 to 100 scale (0 no effect, 100 complete control), approx. ten days
Method in brief: as §2

[9] = system: large crabgrass (Digitaria sanguinalis); assay: Test A pre-/postemergence plant response; settings: for Crabgrass, Large plant response rating: visual injury, 0 to 100 scale (0 no effect, 100 complete control), approx. ten days
Method in brief: as §2

[10] = system: pigweed (Amaranthus retroflexus); assay: Test A pre-/postemergence plant response; settings: for Pigweed plant response rating: visual injury, 0 to 100 scale (0 no effect, 100 complete control), approx. ten days
Method in brief: as §2

[11] = system: velvetleaf (Abutilon theophrasti); assay: Test A pre-/postemergence plant response; settings: for Velvetleaf plant response rating: visual injury, 0 to 100 scale (0 no effect, 100 complete control), approx. ten days
Method in brief: as §2

[12] = system: morningglory (Ipomoea spp.); assay: Test A pre-/postemergence plant response; settings: for Morningglory plant response rating: visual injury, 0 to 100 scale (0 no effect, 100 complete control), approx. ten days
Method in brief: as §2

[13] = 31 g ai/ha, 0 to 100 scale (0 no effect, 100 complete control)
[14] = 125 g ai/ha, scale 0 to 100 (0 no effect, 100 complete control)
[15] = 250 g ai/ha, scale 0 to 100 (0 no effect, 100 complete control), 13 to 15 days
[16] = Postemergence, 125 g ai/ha, 0 to 100 scale where 0 is no effect and 100 is complete control
[17] = Preemergence, 125 g ai/ha, 0 to 100 scale, 0 = no effect, 100 = complete control
[18] = Preemergence, 500 g ai/ha, 0 to 100 scale, 0 = no effect, 100 = complete control

Cc1ccc(Cl)cc1-n1c(-c2cccc(F)c2)ncc(C(=O)C2=C(O)CCCC2=O)c1=O [Compound 184]
Plant response rating, Windgrass [1, 13]: 60 | Plant response rating, Windgrass [1, 14]: 90 | Plant response rating, Windgrass [1, 15]: 100 | Plant response rating, Chickweed [2, 13]: 100 | Plant response rating, Chickweed [2, 14]: 100 | Plant response rating, Chickweed [2, 15]: 100 | Plant response rating, Canarygrass [3, 13]: 45 | Plant response rating, Canarygrass [3, 14]: 80 | Plant response rating, Canarygrass [3, 15]: 95 | Barley plant response rating (0 to 100 scale) ([4]; 13 to 15 days): 40 | Plant response rating, Barley [4, 13]: 5 | Plant response rating, Barley [4, 14]: 60 | Plant response rating, Barley [4, 15]: 60 | Plant response rating, Wheat [5, 16]: 0 | Wheat plant response rating ([5]; Postemergence, 500 g ai/ha): 50 | Plant response rating, Wheat [5, 17]: 0 | Plant response rating, Wheat [5, 18]: 0 | Plant response rating, Corn [6, 16]: 10 | Corn plant response rating ([6]; Postemergence, 500 g ai/ha): 80 | Plant response rating, Corn [6, 17]: 0 | Plant response rating, Corn [6, 18]: 20 | Plant response rating, Foxtail, Giant [7, 16]: 90 | Foxtail, Giant plant response rating ([7]; Postemergence, 500 g ai/ha): 100 | Plant response rating, Foxtail, Giant [7, 17]: 30 | Plant response rating, Foxtail, Giant [7, 18]: 90 | Plant response rating, Barnyardgrass [8, 16]: 90 | Barnyardgrass plant response rating ([8]; Postemergence, 500 g ai/ha): 100 | Plant response rating, Barnyardgrass [8, 17]: 20 | Plant response rating, Barnyardgrass [8, 18]: 90 | Plant response rating, Crabgrass, Large [9, 16]: 80 | Crabgrass, Large plant response rating ([9]; Postemergence, 500 g ai/ha): 100 | Plant response rating, Crabgrass, Large [9, 17]: 30 | Plant response rating, Crabgrass, Large [9, 18]: 100 | Plant response rating, Pigweed [10, 16]: 100 | Pigweed plant response rating ([10]; Postemergence, 500 g ai/ha): 100 | Plant response rating, Pigweed [10, 17]: 70 | Plant response rating, Pigweed [10, 18]: 90 | Plant response rating, Velvetleaf [11, 16]: 100 | Velvetleaf plant response rating ([11]; Postemergence, 500 g ai/ha): 100 | Plant response rating, Velvetleaf [11, 17]: 80 | Plant response rating, Velvetleaf [11, 18]: 100 | Plant response rating, Morningglory [12, 16]: 50 | Morningglory plant response rating ([12]; Postemergence, 500 g ai/ha): 100 | Plant response rating, Morningglory [12, 17]: 10 | Plant response rating, Morningglory [12, 18]: 60

O=C1CCCC(O)=C1C(=O)c1cnc(-c2cccc(F)c2)n(C2CCCCC2)c1=O [Compound 187]
Plant response rating, Windgrass [1, 13]: 10 | Plant response rating, Windgrass [1, 14]: 65 | Plant response rating, Windgrass [1, 15]: 80 | Plant response rating, Chickweed [2, 13]: 100 | Plant response rating, Chickweed [2, 14]: 100 | Plant response rating, Chickweed [2, 15]: 100 | Plant response rating, Canarygrass [3, 13]: 10 | Plant response rating, Canarygrass [3, 14]: 55 | Plant response rating, Canarygrass [3, 15]: 60 | Barley plant response rating (0 to 100 scale) ([4]; 13 to 15 days): 5 | Plant response rating, Barley [4, 13]: 0 | Plant response rating, Barley [4, 14]: 40 | Plant response rating, Barley [4, 15]: 40 | Plant response rating, Wheat [5, 16]: 0 | Wheat plant response rating ([5]; Postemergence, 500 g ai/ha): 0 | Plant response rating, Wheat [5, 17]: 0 | Plant response rating, Wheat [5, 18]: 0 | Plant response rating, Corn [6, 16]: 0 | Corn plant response rating ([6]; Postemergence, 500 g ai/ha): 50 | Plant response rating, Corn [6, 17]: 0 | Plant response rating, Corn [6, 18]: 0 | Plant response rating, Foxtail, Giant [7, 16]: 80 | Foxtail, Giant plant response rating ([7]; Postemergence, 500 g ai/ha): 90 | Plant response rating, Foxtail, Giant [7, 17]: 30 | Plant response rating, Foxtail, Giant [7, 18]: 90 | Plant response rating, Barnyardgrass [8, 16]: 90 | Barnyardgrass plant response rating ([8]; Postemergence, 500 g ai/ha): 100 | Plant response rating, Barnyardgrass [8, 17]: 20 | Plant response rating, Barnyardgrass [8, 18]: 90 | Plant response rating, Crabgrass, Large [9, 16]: 90 | Crabgrass, Large plant response rating ([9]; Postemergence, 500 g ai/ha): 100 | Plant response rating, Crabgrass, Large [9, 17]: 30 | Plant response rating, Crabgrass, Large [9, 18]: 90 | Plant response rating, Pigweed [10, 16]: 100 | Pigweed plant response rating ([10]; Postemergence, 500 g ai/ha): 100 | Plant response rating, Pigweed [10, 17]: 60 | Plant response rating, Pigweed [10, 18]: 70 | Plant response rating, Velvetleaf [11, 16]: 100 | Velvetleaf plant response rating ([11]; Postemergence, 500 g ai/ha): 100 | Plant response rating, Velvetleaf [11, 17]: 70 | Plant response rating, Velvetleaf [11, 18]: 100 | Plant response rating, Morningglory [12, 16]: 100 | Morningglory plant response rating ([12]; Postemergence, 500 g ai/ha): 100 | Plant response rating, Morningglory [12, 17]: 80 | Plant response rating, Morningglory [12, 18]: 90
